In ChEMBL document CHEMBL1811917 (J Med Chem, 2011):

Legend:
[1] = biological target: T1, Arginase-2, mitochondrial (Homo sapiens, UniProt P78540); experiment: Binding affinity to human arginase 2
T1 sequence (P78540 whole entry): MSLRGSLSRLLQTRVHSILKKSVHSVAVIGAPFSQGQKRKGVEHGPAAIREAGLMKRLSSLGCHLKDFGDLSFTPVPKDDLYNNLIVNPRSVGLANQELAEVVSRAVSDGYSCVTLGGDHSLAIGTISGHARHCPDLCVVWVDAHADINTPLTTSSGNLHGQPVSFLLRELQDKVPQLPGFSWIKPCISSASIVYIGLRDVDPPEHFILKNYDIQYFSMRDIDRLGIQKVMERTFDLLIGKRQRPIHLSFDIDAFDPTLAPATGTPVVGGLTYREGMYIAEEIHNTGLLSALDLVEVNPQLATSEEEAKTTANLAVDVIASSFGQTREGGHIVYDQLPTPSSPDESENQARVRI

Arginase [2] = biological target: T2, Arginase (Plasmodium falciparum, UniProt Q8I384); experiment: Inhibition of Plasmodium falciparum arginase using L-arginine as substrate by colorimetric assay
T2 sequence (Q8I384 whole entry): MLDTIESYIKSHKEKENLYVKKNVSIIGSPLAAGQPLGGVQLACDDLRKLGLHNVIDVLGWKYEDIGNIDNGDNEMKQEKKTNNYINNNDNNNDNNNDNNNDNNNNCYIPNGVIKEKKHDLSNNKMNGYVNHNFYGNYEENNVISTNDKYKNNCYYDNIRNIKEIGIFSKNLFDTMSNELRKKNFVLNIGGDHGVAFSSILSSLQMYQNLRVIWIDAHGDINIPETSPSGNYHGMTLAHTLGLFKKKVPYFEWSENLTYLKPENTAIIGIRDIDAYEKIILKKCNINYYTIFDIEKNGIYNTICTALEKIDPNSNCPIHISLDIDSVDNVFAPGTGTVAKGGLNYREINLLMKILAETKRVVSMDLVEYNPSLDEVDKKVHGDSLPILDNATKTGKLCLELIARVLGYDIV

Arginase-1 [3] = biological target: T3, Arginase-1 (Homo sapiens, UniProt P05089); experiment: Binding affinity to human arginase 1 using L-arginine as substrate by surface plasmon resonance assay
T3 sequence (P05089 whole entry): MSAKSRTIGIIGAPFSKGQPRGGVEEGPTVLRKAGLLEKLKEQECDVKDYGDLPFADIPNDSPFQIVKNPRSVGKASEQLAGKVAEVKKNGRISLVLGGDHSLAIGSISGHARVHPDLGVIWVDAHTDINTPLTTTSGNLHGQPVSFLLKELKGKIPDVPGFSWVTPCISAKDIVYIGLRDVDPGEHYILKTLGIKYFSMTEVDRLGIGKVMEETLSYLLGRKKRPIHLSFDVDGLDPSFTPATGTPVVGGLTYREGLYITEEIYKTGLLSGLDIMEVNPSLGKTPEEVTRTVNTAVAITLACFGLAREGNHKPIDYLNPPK

Arginase-1 [4] = biological target: T3, Arginase-1; experiment: Binding affinity to human arginase 1
Arginase [5] = biological target: T2, Arginase; experiment: Binding affinity to Plasmodium falciparum arginase

Kd (Arginase-1 [3]) [µM]	Structure (SMILES)	Ki [1] [µM]	Ki (Arginase [2]) [µM]	Kd (Arginase-1 [4]) [µM]	Kd (Arginase [5]) [µM]
0.88	CC(N)(CCCCB(O)O)C(=O)O (racemic)		260		
34	NC(CCCCB(O)O)(C(=O)O)C(F)F (racemic)				

Structure (SMILES)	Kd (Arginase-1 [3]) [µM]	Ki [1] [µM]	Ki (Arginase [2]) [µM]	Kd (Arginase-1 [4]) [µM]	Kd (Arginase [5]) [µM]
N[C@@H](CCCCB(O)O)C(=O)O	0.018	0.0085	10	0.005	11
